Values quoted from earlier work as cited in patent US20120121615A1, “ALANINYL MAYTANSINOL ANTIBODY CONJUGATES” (priority 2010, published 2012).

Compound: COc1cc2cc(c1Cl)N(C)C(=O)C[C@H](OC(=O)[C@H](C)N(C)C(C)=O)[C@]1(C)O[C@H]1[C@H](C)[C@@H]1C[C@@](O)(NC(=O)O1)[C@H](OC)/C=C/C=C(\C)C2 [maytansine]
- dose-limiting toxicity (DLT) (2.0 mg/m^2 every 3 weeks, single dose or 3 consecutive days): gastrointestinal, consisting of nausea, vomiting, and diarrhea
- activity in the clinic (at doses that could be safely delivered): modest
